Where two headings read alike, the source gives them in different places.
How the values were obtained:
[1] = test system: MCF-7 cells; assay: MTT assay, cytotoxicity on MCF-7 cells
[2] = test system: MCF-10A cells; assay: MTT assay, cytotoxicity on MCF-10A cells; assay type: cell-based, human; details: 72 h
Protocol: The assay was conducted as described by Mosmann. […] Non-treated cancer cells were used as a control.

[3] = Thermal stability by thermogravimetric analysis (TG); assay type: physicochemical
Protocol: The test was conducted in the 25–1000 °C temperature range at a heating rate of 10 ° min^−1 under air (flow rate of 25 cm^−3min^−1) and nitrogen (flow rate of 10 cm^−3min^−1). The weight of the samples was 5–7 mg.

[4] = test system: MCF-7 cells; assay: Colony formation (clonogenic) assay; assay type: cell-based, human; details: for effect on MCF-7 colony formation: 2.5–12.5 µM
Protocol: Clonogenic assays were performed, and surviving fractions were calculated as described by Franken et al.. Briefly, MCF-7 cells were seeded in 6-well plates at a concentration of 500 cells/well and allowed to adhere for 48 h and subsequently treated with 2.5–12.5 µM concentration of BA and selected BA-ILs (Day 1). The BA and BA-ILs were replenished every 4 days. On Day 10, cells were fixed with 10% formalin in phosphate-buffered saline (PBS), pH 7.4 for 30 min at room temperature (RT), washed with PBS and stained with 0.1% Crystal violet solution in ddH2O, 30 min, RT, followed by a final thorough wash in ddH2O. The colonies were then imaged and analyzed with the open-source platform Fiji.

[5] = test system: MCF-7 cells; assay: Cell morphology analysis by light microscopy; assay type: cell-based, human; details: MCF-7, 72 h, concentration close to IC50
Protocol: The changes in cell morphology after a 72 h treatment with BA and [AAOEt][BA] were observed under an inverted microscope (MEIJI, Japan) with objective 10 (Phase DM, MEIJI, Japan) and camera Optikam B1 Digital (Optika, Ponteranica, Bergamo, Italy).

[6] = Estimation of the water solubility (DMSO stock diluted with deionized water until sediment); assay type: physicochemical; parameters: key: “5×”: weak; “10×”: middle; “20×”:good’; “50×”: very good; “100×”: excellent; details: 1 mg in 100 μL DMSO, class by dilution factor
Protocol: The water solubility of betulinic acid and its derivatives was evaluated following the described method. For this purpose, 1 mg of the substance was dissolved in 100 μL of DMSO. The stock solution was diluted with 10 μL potions of deionized water until the sediment was observed. 10 μL portions were added to produce dilutions corresponding to 5 times, 10 times, 20 times, 50 times, and 100 times the original concentration.

[7] = test system: MCF-7 cells
[8] = parameters: method as in PMID 28273859; details: cited from earlier work
[9] = parameters: method as in PMID 28273859; details: model of intestinal mucus, compared to known drugs; cited from earlier work

Row | SMILES | IC50 ([1]; MCF-7, 72 h, MTT) [µM] | TTGonset (onset of the thermal degradation) [3] [°C] | TDTGmax (maximum decomposition temperature) ([3]; TG, 25–1000 °C, 10 °/min) [°C] | Water Solubility [6] | further results
1 | C=C(C)C1CCC2(C(=O)O)CCC3(C)C(CCC4C5(C)CCC(O)C(C)(C)C5CCC43C)C12.C=C(C)C1CCC2(C(=O)O)CCC3(C)C(CCC4C5(C)CCC(O)C(C)(C)C5CCC43C)C12.CCOC(=O)C(N)CCCCN (centres unmarked) [[LysOEt][BA]2] | 4.8 ± 1.3 | 157.7 | 368.8 | good | cell specificity of action (MCF-10A vs MCF-7) [2]: did not show any cell specificity; IC50 ([2]; MCF-10A): 4 µM; surviving fraction (cell clonogenicity) ([4]; MCF-7, 12.5 µM, vs non-treated control, Day 10): below 20%; clonogenic efficiency ([4]; MCF-7, compared to that of BA (abstract)): 20%; changes in cell numbers and morphology [5]: cell rounding and shrinkage
2 | C=C(C)C1CCC2(C(=O)O)CCC3(C)C(CCC4C5(C)CCC(O)C(C)(C)C5CCC43C)C12.CCOC(=O)C(N)CCCCN (centres unmarked) [[LysOEt][BA]] | 12.9 ± 0.3 | 144.0 | 327.3 | very good | 
3 | C=C(C)C1CCC2(C(=O)O)CCC3(C)C(CCC4C5(C)CCC(O)C(C)(C)C5CCC43C)C12.CCOC(=O)C(C)N (centres unmarked) [[AlaOEt][BA]] | 12.7 ± 4.5 | 92.0 | 370.7 | weak | 
4 | C=C(C)C1CCC2(C(=O)O)CCC3(C)C(CCC4C5(C)CCC(O)C(C)(C)C5CCC43C)C12.CCOC(=O)CC(N)C(=O)OCC (centres unmarked) [[Asp(OEt)2][BA]] | 8.9 ± 2.1 | 119.8 | 357.4 | middle | 
5 | C=C(C)C1CCC2(C(=O)O)CCC3(C)C(CCC4C5(C)CCC(O)C(C)(C)C5CCC43C)C12.CCOC(=O)C(N)CO (centres unmarked) [[SerOEt][BA]] | 12.2 ± 2.6 | 118.2 | 364.1 | middle | 
6 | C=C(C)C1CCC2(C(=O)O)CCC3(C)C(CCC4C5(C)CCC(O)C(C)(C)C5CCC43C)C12.CCOC(=O)C(N)C(C)O (centres unmarked) [[ThrOEt][BA]] | 8.2 ± 2.4 | 109.0 | 353.5 | middle | 
7 | C=C(C)C1CCC2(C(=O)O)CCC3(C)C(CCC4C5(C)CCC(O)C(C)(C)C5CCC43C)C12.CCOC(=O)C(N)Cc1ccccc1 (centres unmarked) [[PheOEt][BA]] | 12.3 ± 1.7 | 133.9 | 360.1 | middle | cytotoxicity / IC50 compared with BA [7]: cytotoxicity similar to BA
8 | C=C(C)C1CCC2(C(=O)O)CCC3(C)C(CCC4C5(C)CCC(O)C(C)(C)C5CCC43C)C12.CCOC(=O)C(N)C(C)C (centres unmarked) [[ValOEt][BA]] | 25.7 ± 0.8 | 116.8 | 354.0 | weak | effect on MCF-7 colony formation [4]: did not inhibit MCF-7 colony formation
9 | C=C(C)C1CCC2(C(=O)O)CCC3(C)C(CCC4C5(C)CCC(O)C(C)(C)C5CCC43C)C12.CCOC(=O)C(N)CCSC (centres unmarked) [[MetOEt][BA]] | 7.5 ± 0.3 |  | 358.6 | weak | cytotoxicity / IC50 compared with BA ([1]; MCF-7, 72 h, MTT): IC50 values lower than that of BA; TTGonset (onset of the thermal degradation) ([3]; TG, 25–1000 °C, 10 °/min): 125.7 °C
10 | C=C(C)C1CCC2(C(=O)O)CCC3(C)C(CCC4C5(C)CCC(O)C(C)(C)C5CCC43C)C12.CCOC(=O)C(N)CC(C)C (centres unmarked) [[LeuOEt][BA]] | 7.5 ± 1.2 | 114.9 | 359.4 |  | 
11 | C=C(C)C1CCC2(C(=O)O)CCC3(C)C(CCC4C5(C)CCC(O)C(C)(C)C5CCC43C)C12.CCOC(=O)C1CCCN1 (centres unmarked) [[ProOEt][BA]] | 7.6 ± 1.8 | 121.6 | 372.1 | weak | 
12 | C=C(C)C1CCC2(C(=O)O)CCC3(C)C(CCC4C5(C)CCC(O)C(C)(C)C5CCC43C)C12.CCOC(=O)C(N)C(C)CC (centres unmarked) [[IleOEt][BA]] | 8.5 ± 1.3 | 127.5 | 369.0 | weak | cytotoxicity / IC50 compared with BA [7]: IC50 values lower than that of BA
13 | C=C(C)C1CCC2(C(=O)O)CCC3(C)C(CCC4C5(C)CCC(O)C(C)(C)C5CCC43C)C12.CCOC(=O)C(N)Cc1ccc(O)cc1 (centres unmarked) [[TyrOEt][BA]] | 14.2 ± 2.4 | 202.3 | 354.4 | weak | cytotoxicity / IC50 compared with BA [7]: cytotoxicity similar to BA
14 | C=C(C)C1CCC2(C(=O)O)CCC3(C)C(CCC4C5(C)CCC(O)C(C)(C)C5CCC43C)C12.CCOC(=O)C(N)CS (centres unmarked) [[CysOEt][BA]] | 9.6 ± 3.8 | 150.1 | 359.2 | middle | 
15 | C=C(C)[C@@H]1CC[C@]2(C(=O)O)CC[C@]3(C)[C@H](CC[C@@H]4[C@@]5(C)CC[C@H](O)C(C)(C)[C@@H]5CC[C@]43C)[C@@H]12 [BA, Betulinic acid] |  |  | 358.7 | weak | bioavailability [8]: 2.3%; IC50 ([1]; Homo sapiens, MCF7, 72 h): 11.5 ± 1.8 µM; TTGonset (onset of the thermal degradation) ([3]; TG, 25–1000 °C, 10 °/min): 305.7 °C; permeability classification [9]: moderate to poorly permeable; effect on MCF-7 colony formation [4]: did not inhibit MCF-7 colony formation; changes in cell numbers and morphology [5]: reduction in cell numbers
16 | C=C(C)C1CCC2(C(=O)O)CCC3(C)C(CCC4C5(C)CCC(O)C(C)(C)C5CCC43C)C12.CCOC(=O)C(N)Cc1c[nH]c2ccccc12 (centres unmarked) [[TrpOEt][BA]] | 13.1 ± 0.4 |  | 359.8 | middle | cytotoxicity / IC50 compared with BA [7]: cytotoxicity similar to BA
